Experimental data from US20100035911A1, “DRUG COMBINATIONS TO TREAT HYPERPROLIFERATIVE DISORDERS” (priority 2006, published 2010).

Experiments:
[1] = system: human neuroblastoma cell line CHLA-136; experiment: Event-free survival of mice bearing CHLA-136 subcutaneous xenografts; assay type: in vivo, nu/nu mice; conditions: CHLA-136 xenograft; single agents at the drug doses employed
Description: Treating cancer in xenografts with fenretinide+ABT-751. Administration of fenretinide and ABT-751 in combination to nu/nu mice bearing subcutaneous xenografts of multi-drug resistant neuroblastoma xenografts (tumor cell lines are described in: Keshelava N, Zuo J J, Chen P, Waidyaratine S N, Luna M C, Gomer C J, Triche T J, Reynolds C P: Loss of p53 function confers high-level multi-drug resistance in neuroblastoma cell lines. Cancer Research 61:6185-6193, 2001, and xenograft methods are described in: Reynolds, C P, Sun B C, DeClerck Y A, Moats R A: Assessing growth and response to therapy in murine tumor models. Methods in Molecular Medicine Chemosensitivity Vol 2 ed. Blumenthal R D, Totowa: Humana Press pp 335-350, 2005.
Mice were treated daily with ABT-751, and twice daily with fenretinide for 5 days/week. Fenretinide was given as a powder LXS formulation mixed with water (Maurer B J, Kalous O, Yesair D W, Wu X, Vratilova J, Maldonado V, Khankaldyyan V, Frgala T, Sun B C, McKee R T, Burgess S W, Shaw W A, Reynolds C P. Improved oral delivery of N-(4-hydroxyphenyl)retinamide with novel LYM-X-SORB™ organized lipid complex in mice. Clinical Cancer Research (In Press, 2007)). Both drugs were given to mice by gavage.

[2] = system: human Ramos Burkitts lymphoma cell line; experiment: Survival of mice bearing Ramos lymphoma subcutaneous xenografts; assay type: in vivo; conditions: single agents at the drug doses employed
Protocol: Treating lymphoma xenografts with fenretinide combined with vincristine. […] Testing of fenretinide+vincristine was carried out as described for fenretinide+ABT-751 in Example 1, except that vincristine was given by i.p. injection twice a week during the 5 day administration of fenretinide.

[3] = system: human ovarian cancer cell line, CRL-1572; experiment: Survival of mice bearing CRL-1572 ovarian cancer subcutaneous xenografts; assay type: in vivo; conditions: CRL-1572 xenografts; single agents at the drug doses employed
Description: Fenretinide combined with taxanes is active against ovarian cancer Xenografts. Based on the surprising and favorable results observed when combining ABT-751 with fenretinide with neuroblastoma xenografts and vincristine with fenretinide for a lymphoma xenograft, we explored other types of cancer as xenografts and we also sought to test taxanes for a possible increase in activity when combined with fenretinide.

[4] = cited from earlier work

Molecule	response of xenograft to single agent [1]	response of tumor cell line to single agent [2]	response of tumor cell line to single agent [3]	solubility in aqueous solution [4]
COc1ccc(S(=O)(=O)Nc2cccnc2Nc2ccc(O)cc2)cc1 [ABT-751]	minimally response	–	–	–
CC1=C(/C=C/C(C)=C/C=C/C(C)=C/C(=O)Nc2ccc(O)cc2)C(C)(C)CCC1 [fenretinide, all-trans-N-(4-hydroxyphenyl)retinamide]	minimally response	minimally responsive	minimally responsive	minimally soluble
CC(=O)O[C@H]1C(=O)[C@@]2(C)[C@H]([C@H](OC(=O)c3ccccc3)[C@]3(O)C[C@H](OC(=O)[C@H](O)[C@@H](NC(=O)c4ccccc4)c4ccccc4)C(C)=C1C3(C)C)[C@]1(OC(C)=O)CO[C@@H]1C[C@@H]2O [paclitaxel]	–	–	minimally responsive	–
vincristine	–	minimally responsive	–	–
